Measurements published in patent publication US20230233569A1 (Revolution Medicines, Inc., priority 2020, published 2023).
Like-named read-outs stand apart in the source and are kept apart here.

Legend:
Assay in all cases: Ras-Raf disruption / FRET / MOA assay (BRAF RBD)
Format in all cases: biochemical
[1] = target: KRAS G12C (Homo sapiens, UniProt P01116+P62937, G12C); conditions: with Cyclophilin A
Outline: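 His6-K-Ras G12C-GMPPNP (12.5 nM), GST-BRAF RBD (50 nM) and tagless Cyclophilin A (25 μM) incubated 3 h at 25 °C with compound (10-point 3-fold series from 30 μM), pH 7.3 HEPES buffer. Anti-His Eu/anti-GST APC added for 1.5 h; decreased TR-FRET ratio vs DMSO gives IC50.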

[2] = target: KRAS WT (Homo sapiens, UniProt P01116+P62937); conditions: with Cyclophilin A
Chain of KRAS WT (P01116 1-169 isoform P01116-2 limits assumed): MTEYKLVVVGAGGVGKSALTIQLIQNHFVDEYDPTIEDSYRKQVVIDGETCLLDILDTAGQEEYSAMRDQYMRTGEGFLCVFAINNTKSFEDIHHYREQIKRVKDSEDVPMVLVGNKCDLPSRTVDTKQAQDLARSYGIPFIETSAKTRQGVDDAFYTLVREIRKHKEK
Chain of KRAS WT (P62937 whole entry): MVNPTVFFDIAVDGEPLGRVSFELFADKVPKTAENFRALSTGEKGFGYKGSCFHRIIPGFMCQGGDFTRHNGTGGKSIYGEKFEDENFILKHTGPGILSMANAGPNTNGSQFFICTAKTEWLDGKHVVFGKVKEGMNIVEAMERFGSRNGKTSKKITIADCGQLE
Outline: (§1)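 TR-FRET in 25 mM HEPES pH 7.3, 100 mM NaCl, 5 mM MgCl2, 0.1% BSA, 0.002% Tween20 with 25 μM Cyclophilin A, 12.5 nM His6-Ras-GMPPNP, 50 nM GST-BRAF RBD; compound 10-point 3-fold series from 30 μM. After 3 h at 25 °C, Eu anti-His/APC anti-GST added for 1.5 h; IC50 from ratio decrease versus DMSO.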

[3] = target: KRAS G13C (Homo sapiens, UniProt P01116+P62937, G13C); conditions: with Cyclophilin A
Chain of KRAS G13C (P01116 1-169 isoform P01116-2 G13C limits assumed): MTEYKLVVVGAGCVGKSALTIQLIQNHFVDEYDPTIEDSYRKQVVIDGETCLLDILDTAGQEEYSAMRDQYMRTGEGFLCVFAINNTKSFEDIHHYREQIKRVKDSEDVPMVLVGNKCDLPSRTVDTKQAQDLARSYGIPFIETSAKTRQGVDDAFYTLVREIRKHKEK
Chain of KRAS G13C (P62937 whole entry): as the sequence (P62937 whole entry) above
Outline: as §1

[4] = target: KRAS G13D (Homo sapiens, UniProt P01116+P62937, G13D); conditions: with Cyclophilin A
Chain of KRAS G13D (P01116 1-169 isoform P01116-2 G13D limits assumed): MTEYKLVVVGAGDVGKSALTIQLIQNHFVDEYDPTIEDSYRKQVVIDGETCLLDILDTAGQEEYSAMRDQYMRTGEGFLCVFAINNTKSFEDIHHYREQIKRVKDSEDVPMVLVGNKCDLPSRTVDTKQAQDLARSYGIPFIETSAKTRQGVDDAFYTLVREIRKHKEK
Chain of KRAS G13D (P62937 whole entry): as the sequence (P62937 whole entry) above
Outline: as §1

[5] = target: KRAS G12D (Homo sapiens, UniProt P01116+P62937, G12D); conditions: with Cyclophilin A
Chain of KRAS G12D (P01116 1-169 isoform P01116-2 G12D limits assumed): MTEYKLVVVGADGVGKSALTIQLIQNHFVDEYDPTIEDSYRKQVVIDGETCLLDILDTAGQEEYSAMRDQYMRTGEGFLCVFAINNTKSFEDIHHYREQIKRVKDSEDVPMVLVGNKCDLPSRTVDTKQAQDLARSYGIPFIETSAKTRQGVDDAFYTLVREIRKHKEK
Chain of KRAS G12D (P62937 whole entry): as the sequence (P62937 whole entry) above
Outline: as §1

[6] = target: KRAS Q61H (Homo sapiens, UniProt P01116+P62937, Q61H)
Chain of KRAS Q61H (P01116 1-169 isoform P01116-2 Q61H limits assumed): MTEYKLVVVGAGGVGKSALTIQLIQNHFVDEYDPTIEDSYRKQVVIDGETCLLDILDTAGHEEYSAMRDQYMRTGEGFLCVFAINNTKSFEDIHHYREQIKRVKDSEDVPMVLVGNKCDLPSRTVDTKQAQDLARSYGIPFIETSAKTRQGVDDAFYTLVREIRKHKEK
Chain of KRAS Q61H (P62937 whole entry): as the sequence (P62937 whole entry) above
Outline: as §1

[7] = target: NRAS Q61K (Homo sapiens, UniProt P01111+P62937, Q61K)
Chain of NRAS Q61K (P01111 whole entry Q61K): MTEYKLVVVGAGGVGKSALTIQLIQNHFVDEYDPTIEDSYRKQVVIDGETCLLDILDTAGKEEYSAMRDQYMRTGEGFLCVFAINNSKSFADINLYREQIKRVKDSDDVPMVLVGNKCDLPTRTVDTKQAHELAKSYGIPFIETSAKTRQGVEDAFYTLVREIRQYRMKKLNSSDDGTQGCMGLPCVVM
Chain of NRAS Q61K (P62937 whole entry): as the sequence (P62937 whole entry) above
Outline: as §1

[8] = target: KRAS G12V (Homo sapiens, UniProt P01116+P62937, G12V); conditions: with Cyclophilin A
Chain of KRAS G12V (P01116 1-169 isoform P01116-2 G12V limits assumed): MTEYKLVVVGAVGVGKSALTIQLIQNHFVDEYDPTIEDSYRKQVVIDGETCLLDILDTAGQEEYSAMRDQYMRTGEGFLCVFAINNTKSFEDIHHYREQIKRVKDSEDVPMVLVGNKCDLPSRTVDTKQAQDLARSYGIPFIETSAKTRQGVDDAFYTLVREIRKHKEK
Chain of KRAS G12V (P62937 whole entry): as the sequence (P62937 whole entry) above
Outline: as §1

[9] = target: NRAS WT (Homo sapiens, UniProt P01111+P62937)
Chain of NRAS WT (P01111 whole entry): as the sequence (P01111 whole entry Q61K) above, with K61Q counted along it
Chain of NRAS WT (P62937 whole entry): as the sequence (P62937 whole entry) above
Outline: as §1

[10] = target: KRAS G12S (Homo sapiens, UniProt P01116+P62937, G12S); conditions: with Cyclophilin A
Chain of KRAS G12S (P01116 1-169 isoform P01116-2 G12S limits assumed): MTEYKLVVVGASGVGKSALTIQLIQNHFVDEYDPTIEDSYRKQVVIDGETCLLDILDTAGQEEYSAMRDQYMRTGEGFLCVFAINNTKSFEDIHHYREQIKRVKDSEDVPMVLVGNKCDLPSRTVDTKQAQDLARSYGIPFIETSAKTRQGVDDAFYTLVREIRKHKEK
Chain of KRAS G12S (P62937 whole entry): as the sequence (P62937 whole entry) above
Outline: as §1

[11] = target: NRAS Q61R (Homo sapiens, UniProt P01111+P62937, Q61R)
Chain of NRAS Q61R (P01111 whole entry Q61R): as the sequence (P01111 whole entry Q61K) above, with K61R counted along it
Chain of NRAS Q61R (P62937 whole entry): as the sequence (P62937 whole entry) above
Outline: as §1

[12] = target: NRAS G12C (Homo sapiens, UniProt P01111+P62937, G12C)
Chain of NRAS G12C (P01111 whole entry G12C): as the sequence (P01111 whole entry Q61K) above, with G12C, K61Q counted along it
Chain of NRAS G12C (P62937 whole entry): as the sequence (P62937 whole entry) above
Outline: as §1

[13] = Ras-Raf disruption, read-out: KRAS G12C FRET data IC50
[14] = Ras-Raf disruption, read-out: KRAS WT FRET data IC50
[15] = Ras-Raf disruption, read-out: KRAS G13C FRET data IC50
[16] = Ras-Raf disruption, read-out: KRAS G13D FRET data IC50
[17] = Ras-Raf disruption, read-out: KRAS G12D FRET data IC50
[18] = KRAS Q61H, read-out: KRAS Q61H FRET data IC50
[19] = NRAS Q61K, read-out: NRAS Q61K FRET data IC50
[20] = Ras-Raf disruption, read-out: KRAS G12V FRET data IC50
[21] = NRAS WT, read-out: NRAS WT FRET data IC50
[22] = Ras-Raf disruption, read-out: KRAS G12S FRET data IC50
[23] = NRAS Q61R, read-out: NRAS Q61R FRET data IC50
[24] = NRAS G12C, read-out: NRAS G12C FRET data IC50

Chain of KRAS G12C (P01116 1-169 isoform P01116-2 G12C limits assumed): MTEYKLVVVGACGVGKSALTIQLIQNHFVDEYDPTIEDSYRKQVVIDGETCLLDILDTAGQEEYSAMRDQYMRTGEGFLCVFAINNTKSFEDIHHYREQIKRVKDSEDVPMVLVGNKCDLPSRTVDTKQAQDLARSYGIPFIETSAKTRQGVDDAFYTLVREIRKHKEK
Chain of KRAS G12C (P62937 whole entry): as the sequence (P62937 whole entry) above

| SMILES | IC50 [1, 13] [nM] | IC50 [2, 14] [nM] | IC50 [3, 15] [nM] | IC50 [4, 16] [nM] | IC50 [5, 17] [nM] | IC50 [6, 18] [nM] | IC50 [7, 19] [nM] | IC50 [8, 20] [nM] | IC50 [9, 21] [nM] | IC50 [10, 22] [nM] | IC50 [11, 23] [nM] | IC50 [12, 24] [nM] | other results |
| --- | --- | --- | --- | --- | --- | --- | --- | --- | --- | --- | --- | --- | --- |
| CCn1c(-c2cccnc2[C@H](C)OC)c2c3cc(ccc31)-c1cc(O)cc(c1)C[C@H](NC(=O)[C@H](C(C)C)N(C)C(=O)[C@@H]1CCCN(C(=O)[C@@H]3CN3)C1)C(=O)N1CCC[C@H](N1)C(=O)OCC(C)(C)C2 [Example 238] | 10 to 100 | 10 to 100 | 10 to 100 | 100 to 1000 | 100 to 1000 | 10 to 100 | 100 to 1000 | 100 to 1000 | 10 to 100 | 10 to 100 | 100 to 1000 | 10 to 100 |  |
| CCn1c(-c2cccnc2[C@H](C)OC)c2c3cc(ccc31)-c1cc(O)cc(c1)C[C@H](NC(=O)[C@H](C(C)C)N(C)C(=O)[C@H]1C[C@H](NC(=O)[C@@H]3CN3)C1)C(=O)N1CCC[C@H](N1)C(=O)OCC(C)(C)C2 [Example 167] | < 10 | 10 to 100 | 10 to 100 | 10 to 100 | 10 to 100 | 10 to 100 | 10 to 100 | 10 to 100 | 10 to 100 | 10 to 100 | 100 to 1000 | < 10 |  |
| CCn1c(-c2cc(C3CCN(C)CC3)cnc2[C@H](C)OC)c2c3cc(ccc31)-c1cc(O)cc(c1)C[C@H](NC(=O)[C@H](C1CCCC1)N(C)C(=O)CN(C)C(=O)[C@H]1CN1)C(=O)N1CCC[C@H](N1)C(=O)OCC(C)(C)C2 [Example 230] |  |  |  |  |  |  |  |  |  |  |  |  | IC50 ([1]; KRAS G12C FRET data IC50, Ras-Raf disruption): < 10 nM; IC50 ([2]; KRAS WT FRET data IC50, Ras-Raf disruption): 10 to 100 nM; IC50 ([3]; KRAS G13C FRET data IC50, Ras-Raf disruption): < 10 nM; IC50 ([4]; KRAS G13D FRET data IC50, Ras-Raf disruption): 10 to 100 nM; IC50 ([5]; KRAS G12D FRET data IC50, Ras-Raf disruption): 10 to 100 nM; IC50 [6]: < 10 nM; IC50 [7]: 100 to 1000 nM; IC50 ([8]; KRAS G12V FRET data IC50, Ras-Raf disruption): 10 to 100 nM; IC50 [9]: 10 to 100 nM; IC50 ([10]; KRAS G12S FRET data IC50, Ras-Raf disruption): 10 to 100 nM; IC50 [11]: 10 to 100 nM; IC50 ([12]; NRAS G12C FRET data IC50, NRAS G12C): < 10 nM |
| CCn1c(-c2cccnc2[C@H](C)OC)c2c3cc(ccc31)-c1cc(O)cc(c1)C[C@H](NC(=O)[C@H](C(C)C)N(C)C(=O)[C@@H]1CCN(C(=O)[C@H]3CN3)[C@@H]1C)C(=O)N1CCC[C@H](N1)C(=O)OCC(C)(C)C2 (atropisomer, axis not shown) [Example 207] | 10 to 100 | 10 to 100 | 10 to 100 | 100 to 1000 | 100 to 1000 | 10 to 100 | 100 to 1000 | 10 to 100 | 10 to 100 | 10 to 100 | 100 to 1000 | 10 to 100 |  |
| CCn1c(-c2cccnc2[C@H](C)OC)c2c3cc(ccc31)-c1csc(n1)C[C@H](NC(=O)[C@H](C(C)C)N(C)C(=O)N1CCC[C@H](N(C)C(=O)[C@@H]3CN3)C1)C(=O)N1CCC[C@H](N1)C(=O)OCC(C)(C)C2 (atropisomer, axis not shown) [Example 292] | 100 to 1000 | 100 to 1000 | 100 to 1000 | 1000 to 10000 | 1000 to 10000 | 100 to 1000 | 100 to 1000 | 100 to 1000 | 100 to 1000 | 100 to 1000 | 100 to 1000 | 100 to 1000 |  |
| CCn1c(-c2cccnc2[C@H](C)OC)c2c3cc(ccc31)-c1cc(O)cc(c1)C[C@H](NC(=O)[C@H](C(C)C)N(C)C(=O)N1CC[C@H](N(C)C(=O)[C@H]3CN3)C1)C(=O)N1CCC[C@H](N1)C(=O)OCC(C)(C)C2 (atropisomer, axis not shown) [Example 254] | 10 to 100 | 100 to 1000 | 10 to 100 | 100 to 1000 | 100 to 1000 | 10 to 100 | 100 to 1000 | 100 to 1000 | 100 to 1000 | 100 to 1000 | 100 to 1000 | 10 to 100 |  |
| CCn1c(-c2cccnc2[C@H](C)OC)c2c3cc(ccc31)-c1cc(O)cc(c1)C[C@H](NC(=O)[C@H](C(C)C)N(C)C(=O)[C@@H]1CCN(C(=O)[C@H]3CN3)C1)C(=O)N1CCC[C@H](N1)C(=O)OCC(C)(C)C2 (atropisomer, axis not shown) [Example 186] | < 10 | 10 to 100 | 10 to 100 | 10 to 100 | 10 to 100 | 10 to 100 | 100 to 1000 | 10 to 100 | 10 to 100 | 10 to 100 | 100 to 1000 | < 10 |  |
| CCn1c(-c2cccnc2[C@H](C)OC)c2c3cc(ccc31)-c1cccc(c1)C[C@H](NC(=O)[C@H](C1CCCC1)N1CC[C@]3(CCN(C(=O)[C@@H]4N[C@@H]4C4CC4)C3)C1=O)C(=O)N1CCC[C@H](N1)C(=O)OCC(C)(C)C2 [Example 313] | 100 to 1000 | 1000 to 10000 | 100 to 1000 | 1000 to 10000 | 100 to 1000 |  | 1000 to 10000 | 1000 to 10000 | 1000 to 10000 | 1000 to 10000 | 1000 to 10000 | 100 to 1000 |  |
| CCn1c(-c2cccnc2[C@H](C)OC)c2c3cc(ccc31)-c1csc(n1)C[C@H](NC(=O)[C@H](C(C)C)N(C)C(=O)N1CC(N(C)C(=O)[C@H]3CN3)C1)C(=O)N1CCC[C@H](N1)C(=O)OCC(C)(C)C2 [Example 218] |  | 100 to 1000 | 100 to 1000 | 100 to 1000 | 1000 to 10000 | 10 to 100 | 10 to 100 | 100 to 1000 | 100 to 1000 | 100 to 1000 | 100 to 1000 | 10 to 100 |  |
